Assay results from US20130224223A1, “Compositions and Methods for Treating Neurological Disorders” (GEORGIA REGENTS UNIVERSITY, priority 2007, published 2013).

Target: T1, ErbB4 (Rattus norvegicus, UniProt Q62956)
T1 construct: cerebral cortex was dissected out of Sprague-Dawley rat embryos (E18) and dissociated; endogenous in cells; host or cells: primary rat (Sprague-Dawley) embryonic cortical neurons, DIV14, GAD65-positive
Assay: phospho-ErbB4 immunostaining in GAD65-positive cortical neurons
Format: cell-based
Settings: pretreatment 10 min before 5 nM NRG1; AG1478/AG879 5 mM [sic]
Description: FIG. 4A is a bar graph showing quantitative analysis of phospho-ErbB4 (p-ErbB4) in GAD65-positive cortical neurons treated with ecto-ErbB4 for 10 min prior to the addition of NRG1 (5 nM, final concentration) for another 10 min. n=7, *p<0.05. FIG. 4B is a line graph of eIPSC amplitude (nA) versus time (min) for cortical slices treated with sequential addition of NRG1 (5 nM) and ecto-ErbB4 (1 μg/ml and 2 μg/ml) (all final concentrations). On the top are averaged traces before (a) and after (b) NRG1, and after different dosages of ecto-ErbB4 ([c] and [d], 1 and 2 μg/ml, respectively). […]
FIG. 5A is a bar graph of phospho-ErbB4 (p-ErbB4) in cortical neurons treated with 5 mM AG1478, an inhibitor of ErbB4, or AG879, an inhibitor of ErbB2, for 10 min prior to the addition of NRG1 (5 nM, final concentration). Neurons were fixed and stained with phospho-ErbB4 and GAD65 antibodies, and visualized with Alexa 594 and FITC-coupled secondary antibodies respectively, and quantified. […]

T1 sequence (Q62956 26-1308): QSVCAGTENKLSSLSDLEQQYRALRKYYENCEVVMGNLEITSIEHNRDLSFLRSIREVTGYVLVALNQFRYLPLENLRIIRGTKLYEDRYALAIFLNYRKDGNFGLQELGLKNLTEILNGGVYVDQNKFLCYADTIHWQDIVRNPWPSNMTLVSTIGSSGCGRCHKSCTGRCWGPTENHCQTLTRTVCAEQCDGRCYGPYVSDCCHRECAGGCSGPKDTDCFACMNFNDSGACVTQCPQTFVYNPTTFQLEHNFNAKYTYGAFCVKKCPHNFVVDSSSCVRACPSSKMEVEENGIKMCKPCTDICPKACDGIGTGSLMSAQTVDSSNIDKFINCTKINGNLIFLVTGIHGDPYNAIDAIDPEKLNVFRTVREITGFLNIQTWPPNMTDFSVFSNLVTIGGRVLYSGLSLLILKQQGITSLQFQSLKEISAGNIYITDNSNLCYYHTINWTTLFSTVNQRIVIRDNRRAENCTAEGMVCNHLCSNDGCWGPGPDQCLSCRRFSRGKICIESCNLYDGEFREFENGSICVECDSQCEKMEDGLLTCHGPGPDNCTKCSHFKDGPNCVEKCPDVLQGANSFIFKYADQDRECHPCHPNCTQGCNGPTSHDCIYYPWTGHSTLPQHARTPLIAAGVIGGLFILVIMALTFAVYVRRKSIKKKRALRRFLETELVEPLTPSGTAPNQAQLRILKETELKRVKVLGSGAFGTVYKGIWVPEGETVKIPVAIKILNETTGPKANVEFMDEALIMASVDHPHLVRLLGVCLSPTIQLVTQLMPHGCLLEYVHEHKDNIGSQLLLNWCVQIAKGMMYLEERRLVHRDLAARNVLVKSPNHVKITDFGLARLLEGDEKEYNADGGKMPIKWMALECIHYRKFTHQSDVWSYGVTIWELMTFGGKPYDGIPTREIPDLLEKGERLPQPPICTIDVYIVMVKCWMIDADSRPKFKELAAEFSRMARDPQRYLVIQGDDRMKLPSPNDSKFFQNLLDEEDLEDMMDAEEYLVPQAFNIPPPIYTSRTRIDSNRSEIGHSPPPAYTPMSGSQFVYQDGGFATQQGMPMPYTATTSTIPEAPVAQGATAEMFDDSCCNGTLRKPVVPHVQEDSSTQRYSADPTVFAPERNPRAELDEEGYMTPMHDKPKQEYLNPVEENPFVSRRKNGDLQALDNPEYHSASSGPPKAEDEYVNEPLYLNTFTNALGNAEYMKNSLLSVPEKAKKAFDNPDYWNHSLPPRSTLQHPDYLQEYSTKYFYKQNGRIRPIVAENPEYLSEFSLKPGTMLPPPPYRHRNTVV

## COc1cc2ncnc(Nc3cccc(Cl)c3)c2cc1OC [AG1478]
  NRG1 activation (tyrosine phosphorylation) of ErbB4: blocked
